Source: patent US6831069B2, “Pyrrolo[2,3-d]pyrimidine nucleoside analogs” (priority 1999, dated 2004)
“And” between values parts separate entries of the source, which are not always exact repeats. Equal entries are not always repeated.

Legend:
[1] = system: activated peripheral human T cells; assay: Extracellular cytokine analyses (ELISA) in PMA-ION activated peripheral human T cells; format: cell-based; parameters: secreted IL-4, increase over activated control / IFNγ, decrease over activated control: concentration or dose not given beside the values; conditions: for heightened IL-4 production / reduced levels of secreted IFNγ: PMA-ION; for IFNγ, decrease over activated control / secreted IL-4, increase over activated control: 48 h PMA-ION
activated human T cells = assay: Analysis of cytokine mRNA (RT-PCR, Southern blot) in PMA-ION activated human T cells; format: cell-based
CD3+ T cells = assay: Viability by propidium iodide exclusion; format: cell-based, human
Protocol: For determination of cytokine protein levels, T-cells (1×10^6 cells in a volume of 1 ml) were activated by the addition of 10 ng PMA plus 0.5 μg ionomycin (both from Calbiochem, La Jolla, Calif.) and incubated in 24 well plates in the presence of 0 to 20 μM nucleoside for up to 48 h at 37° C. and 5% CO2 in a humidified incubator. Following activation, supernatants were analysed for cell-derived cytokine production. For proliferation and viability studies, the protocol as above was modified to a 96 well-plate format using 0.2×10^6 cells in a volume of 0.2 ml and activation with 2 ng PMA and 0.1 μg ionomycin. In separate experiments, 5×10^6 T cells in 2 ml were activated with 20 ng PMA plus 1 μg ionomycin. Here total RNA was isolated from T cells following 6-24 h incubation and analyzed by RT-PCR to determine mRNA levels of various cytokines and inflammatory mediators. […]
T cell proliferative responses were assessed by measuring [3H]-thymidine (1 μCi, ICN, Irvine, Calif.) incorporation for the last 16 h of each assay. Cells were harvested onto filters and DNA synthesis was measured following scintillation counting on a Wallac Betaplate counter (Perkin-Elmer/Wallac, Gaithersburg, Md.). Viability was assessed by propidium iodide (5 μg/ml) exclusion in untreated and nucleoside-treated human T cells stained with FITC-CD3 (Becton Dickinson, San Jose, Calif.). […]

BALB/c mice = conditions: mouse, in vivo
[2] = 10 μM, 48 h, representative of five donors
[3] = 10 μM, T cells of 16 RA patients
[4] = 10 μM, T cells of 16 normal donors
[5] = 10 μM, T cells from normal donors and RA patients
[6] = 2, 5 or 10 μM, 6 h or 24 h, PMA-ION, representative of three donors
[7] = pro-/anti-inflammatory mediator study, FIG. 18

SMILES: N=C(N)c1cn([C@@H]2O[C@H](CO)[C@@H](O)[C@H]2O)c2nc[nH]c(=O)c12 [ICN 10776, 7-β-D-ribofuranosyl-4-oxopyrrolo-[2,3-d]pyrimidine-5-carboxamidine]
- peak enhancement of PMA-ION-induced IL-4 level [1, 2]: 166%
- peak enhancement of PMA-ION-induced IL-5 level [1, 2]: 77%
- heightened IL-4 production [1, 3]: 192%
- reduced levels of secreted IFNγ [1, 3]: 63%
- heightened IL-4 production [1, 4]: 266%
- reduced levels of secreted IFNγ [1, 4]: 43%
- peak suppression of PMA-ION-induced IFNγ level ([1]; 20 μM, 48 h): 72%
- peak suppression of PMA-ION-induced IL-2 level ([1]; 20 μM, 48 h): 62%
- peak suppression of PMA-ION-induced TNFα level ([1]; 20 μM, 48 h): 78%
- IFNγ, decrease over activated control ([1]; CD4+ T cells): 81%
- secreted IL-4, increase over activated control ([1]; CD4+ T cells): 994%
- IFNγ, decrease over activated control ([1]; CD8+ T cells): 37%
- secreted IL-4, increase over activated control ([1]; CD8+ T cells): 228%
- IFNγ, decrease over activated control ([1]; total T cells): 52%
- secreted IL-4, increase over activated control ([1]; total T cells): 320%
- IFNγ mRNA levels (activated human T cells; [5]): suppressed
- IL-4 mRNA levels (activated human T cells; [5]): elevated
- TNFα mRNA levels (activated human T cells; [5]): suppressed
- IFNγ mRNA (activated human T cells; [6]): concomitant decrease
- IL-4 mRNA (activated human T cells; [6]): increase in IL-4 mRNA
- TNFα mRNA (activated human T cells; [6]): concomitant decrease
- IFNγ mRNA (activated human T cells; [7]): suppression
- IL-1β mRNA (activated human T cells; [7]): suppressed
- IL-2 mRNA (activated human T cells; [7]): suppression
- IL-4 mRNA (activated human T cells; [7]): enhancement
- IL-6 mRNA (activated human T cells; [7]): suppressed
- IL-10 mRNA (activated human T cells; [7]): enhancement of IL-10
- TNFα mRNA (activated human T cells; [7]): suppression
- c-myc expression (activated human T cells; [7]): suppression
- inducible nitric oxide synthase (iNOS) expression (activated human T cells; [7]): reduction
- viability of resting CD3+ T cells (CD3+ T cells; 20 μM, 48 h incubation, decrease from 95%): 85%
- viability of PMA-ION activated CD3+ T cells versus no nucleoside (CD3+ T cells; 0.2 to 20 μM, 8 h, 24 h, 48 h): no sign difference
- IFNγ mRNA levels (BALB/c mice): substantially reduced
- mean decrease in serum nitrite levels (BALB/c mice): 54% and 78%
- murine IL-10 mRNA expression (BALB/c mice): greatly enhanced
